According to patent US10722532B2, “Polymer-conjugated METAP2 inhibitors, and therapeutic methods of use thereof” (SynDevRx, Inc., priority 2010, dated 2020):
In brackets after ≈: the same amount, converted by molar mass. Read-outs that look alike come from different tables or passages of the source.

Columns and labels:
A549 cells [1] = assay: A549 human non-small cell lung carcinoma cell viability assay (CellTiter-Glo); format: cell-based; conditions: small molecules, 72 hours exposure
Description: (§1) Test compounds, small molecules or polymer conjugates, were dissolved in dimethyl sulfoxide to a stock concentration of 5 mg/mL. The test agents were then diluted to an intermediate concentration at 200 μg/mL in 10% DMSO. Further dilutions were completed serially 3-fold in 10% DMSO to produce 12 decreasing concentrations for in-vitro analysis. To achieve the target concentrations of the in-vitro assays, […] of the intermediate drug preparation was delivered to the cells (seeded in a volume of 50 μL). The final DMSO concentration for the tests was 0.2% for all doses of test agent.
(§2) Cells were exposed to twelve increasing concentrations of formulated test agent from 2×10^−6 to 4.0 μg/mL for 72 hours. Following 72 hour exposure, 25 μL of CellTiter-Glo® Reagent was added to each well. The plates were incubated for 60 minutes at 37° C. in a humidified incubator. After incubation, luminescence was recorded using the Molecular Devices AnalystGT multi-mode reader.
(§3) Data are expressed as the percent cell growth of the untreated (vehicle) control calculated from the luminescence signals. The surviving fraction of cells is determined by dividing the mean luminescence values of the test agents by the mean luminescence values of untreated control. The inhibitory concentration value for the test agent(s) and control were estimated using Prism 5 software (GraphPad Software, Inc.) by curve-fitting the data using the non-linear regression analysis.
The human tumor cell lines A549 and HCT-116 were obtained from American Type Culture Collection (Manassas, Va.). The Human umbilical vein epithelial cells (HUVEC) were obtained from Lonza (Basel, Switzerland). The A549 cells were maintained RPMI 1640 w/L-glut supplemented with 5% FBS. The HCT-116 cells were maintained in McCoy's 5a supplemented with 5% FBS. The HUVEC line was grown in Endothelial Growth Medium with supplements and growth factors (BBE, hydrocortisone, hEGF, FBS and gentamicin/amphotericin-B). All cells were house in an atmosphere of 5% CO2 at 37° C. Cells were dissociated with 0.05% Trypsin and 0.02% EDTA.
(§4) The human tumor cell line A549 was obtained from American Type Culture Collection (Manassas, Va.). The A549 cells were maintained RPMI 1640 w/L-glut supplemented with 5% FBS. A549 cells were seeded at 500 cells per well 24 hours prior to test agent exposure in a volume of 50 μL. The cells were housed in an atmosphere of 5% CO2 at 37° C. Cells were dissociated with 0.05% Trypsin and 0.02% EDTA.

[2] = tested on: A549 tumor cells vs normal HUVEC cells; assay: A549/HUVEC selectivity (ratio of IC50s); format: cell-based, human
HUVEC cells = assay: Human umbilical vein epithelial cell viability assay (CellTiter-Glo); format: cell-based; conditions: small molecules, 72 hours exposure
Description: as §1, §3
The Human umbilical vein epithelial cells (HUVEC) were obtained from Lonza (Basel, Switzerland). The HUVEC line was grown in Endothelial Growth Medium with supplements and growth factors (BBE, hydrocortisone, hEGF, FBS and gentamicin/amphotericin-B). All cells were housed in an atmosphere of 5% CO2 at 37° C. Cells were dissociated with 0.05% Trypsin and 0.02% EDTA.
as §2, with “HUVEC cells were seeded at 1000 cells per well 24 hours prior to test agent exposure in a volume of […]. Cells” for “Cells”, “2.3×10^−6” for “2×10^−6”, “4.02” for “4.0”, “[…]” for “25 μL”, “CellTiter-Glog®” for “CellTiter-Glo®”

HCT-116 cells = assay: HCT-116 human colon tumor cell viability assay (CellTiter-Glo); format: cell-based; conditions: small molecules, 72 hours exposure
Description: as §1, §3
as §4, with “cell lines” for “cell line”, “A549 and HCT-116 were” for “A549 was”, “The HCT-116” for “The A549”, “maintained in McCoy's 5a” for “maintained RPMI 1640 w/L-glut”, “FBS. HCT-116” for “FBS. A549”
as §2, with “2.3×10^−6” for “2×10^−6”, “4.02” for “4.0”

Cathepsin B = biological target: T1, Cathepsin B (Bos taurus, UniProt P07688); assay: Cathepsin B release of fumagillol analogs from HPMA conjugates; format: in vitro ADME; conditions: 40 nM Cathepsin B, approximately 2.5 mg/mL test agent, pH 5.5 or 6.8, 37° C., 0-24 hour, LC/MS/MS
T1 construct: purchased Sigma C6286
Description: Cathepsin B (Sigma Cat # C6286 Lot #025K7672) was diluted to a 10× concentration in activation buffer consisting of approximately 400 nM enzyme, 30 mM DTT, 15 mM EDTA and acetate buffer, pH=5.5 for 15 minutes at room temperature.
The HPMA conjugates were made into a 10× stock solution in pH 5.5 buffer. The final reaction was performed by diluting the enzyme and substrate 10 fold into either buffer at pH=5.5 or pH=6.8. The final enzymatic reaction consisted of 40 nM Cathepsin B, approximately 2.5 mg/mL test agent, and buffer at 37° C. The reaction was stopped at 0, 2, 6, and 24 hour. To stop the reaction, 3 volumes of ice-cold methanol containing propranolol internal standard (at 1.0 μM) was added and left on ice. The samples were then analyzed by LC/MS/MS.

[3] = for T ½: buffer; for Natural Rate Constant: 37° C., 5 μM
Description: At the appropriate time points, a 50 μL sample was withdrawn and diluted with three volumes of methanol containing propranolol as an internal standard (one solution was made for the entire study). The concentration of carbamoylfumagillol in the solution was analyzed by LC/MS/MS over seven days.

[4] = in man; as metabolite of TNP-470; cited from earlier work
B16-F10 tumor cells = assay: In vivo B16-F10 murine melanoma, lung metastases counts; set-up: species or system C57B16 female mice; conditions: 30 mg/kg, qod; sacrificed after 15 days
Description: C57B16 female mice (N=8) were injected (tail vein) with 1×10^5 B16-F10 tumor cells. After one day, mice were treated with polymer conjugates as solutions in saline (IV administration, q4d, four doses except that in one group O-7175 was administered as a single dose on day 1). TNP-470 was used as a positive control, saline as a negative control. Mice were sacrificed after 15 days. Treatment outcomes were assessed by counting lung metastases.

A549 cells [5] = format: in vitro ADME, human
Description: Cells were treated as in Example 51 except that at the end of 72 hour exposure to test agent, the cells were frozen (−70° C.) and stored for subsequent evaluation by LC/MS.

Molecule | A549 IC50 Average (A549 cells [1]) | A549/HUVEC IC50 ratio [2] | HUVEC IC50 Average (HUVEC cells) | HCT116 IC50 Average (HCT-116 cells) | products released by Cathepsin B (Cathepsin B) | other results
CO[C@@H]1[C@H](OC(=O)N[C@@H](C(N)=O)C(C)C)CC[C@]2(CO2)[C@H]1[C@@]1(C)O[C@@H]1CC=C(C)C [Compound O-7177] | 0.215 ng/mL | 2.14 | 0.101 ng/mL | 0.236 ng/mL |  | 
CO[C@@H]1[C@H](O)CC[C@]2(CO2)[C@H]1[C@@]1(C)O[C@@H]1CC=C(C)C [Fumagillol] | 30.1 ng/mL | 1.59 | 18.9 ng/mL | 45.8 ng/mL |  | 
poly(HPMA-co-MA-GFLG-NHCH2CH2N(Me)CH2C(O)NHC(O)2-fumagill-6-yl) |  |  |  |  | fumagillol, carbamoylfumagillol, and fumagil-6-yl (2-aminoethyl)methylcarbamate | 
CO[C@@H]1[C@H](OC(N)=O)CC[C@]2(CO2)[C@H]1[C@@]1(C)O[C@@H]1CC=C(C)C [Carbamoylfumagillol] | 2.89 ng/mL |  | 0.086 ng/mL | 1.035 ng/mL |  | T ½ ([3]; pH 4): 5.38 days; T ½ ([3]; pH 5.3): 17 days; T ½ ([3]; pH 6.7): 30.3 days; T ½ ([3]; pH 8): 25.5 days; Natural Rate Constant ([3]; pH 4.0, 10 mM sodium acetate buffer): 0.0054 h⁻¹; Natural Rate Constant ([3]; pH 5.3, 10 mM sodium acetate buffer): 0.0017 h⁻¹; decomposition ([3]; pH 5.3 to 8.0, 37° C., over the seven day period): less than 20%; Natural Rate Constant ([3]; pH 6.7, potassium phosphate buffer): 0.0010 h⁻¹; Natural Rate Constant ([3]; pH 8.0, potassium phosphate buffer): 0.0011 h⁻¹; half-life [4]: 0.00833 days
poly(HPMA-co-MA-GFLG-N(Me)CH2CH2N(Me)CH2C(O)NHC(O)2-fumagill-6-yl) |  |  |  |  | fumagillol, carbamoylfumagillol, fumagil-6-yl methyl[2-(methylamino)ethyl]carbamate, and ethyl {2-[(aminoacetyl)(methyl)amino]ethyl}methylcarbamate | 
CO[C@@H]1[C@H](OC(=O)NC(=O)CCl)CC[C@]2(CO2)[C@H]1[C@@]1(C)O[C@@H]1CC=C(C)C [TNP-470, chloroacetylcarbamoylfumagillol] |  | 58.53 |  |  |  | IC50 (A549 cells [1]; Homo sapiens, A549): 8.97 ng/mL (≈ 22.3 nM); IC50 (HUVEC cells; Homo sapiens, HUVEC): 0.153 ng/mL (≈ 0.381 nM); IC50 (HCT-116 cells; Homo sapiens, HCT-116, read-out: HCT116 IC50 Average): 2.64 ng/mL (≈ 6.57 nM); Metastases Counts (B16-F10 tumor cells): 39.5
poly[HPMA-co-MA-GFLG-N-(6-aminohexyl)carbamoylfumagillol] |  |  |  |  | N-(6-aminohexyl)carbamoylfumagillol and fumagil-6-yl {6-[(aminoacetyl)amino]hexyl}carbamate | Metabolites identified from the treated cells (A549 cells [5]): N-(6-aminohexyl)carbamoylfumagillol,fumagill-6-yl {6-[(aminoacetyl)amino]hexyl}carbamate, and the epoxide hydrolysis product, (35′,7aR)-7a-(hydroxymethyl)-4-methoxy-3-methyl-2-(3-methylbut-2-en-1-yl)octahydro-1-benzofuran-3-ol-5-yl 6-aminohexyl carbamate
